Our source for the IC50 values is ChEMBL document CHEMBL1132927, “New proline mimetics: synthesis of thrombin inhibitors incorporating cyclopentane- and cyclopentenedicarboxylic acid templates in the P2 position. Binding conformation investigated by X-ray crystallography” (J Med Chem, 2000).

Some results are limits rather than exact numbers.

The assay has as its target Prothrombin (Homo sapiens, UniProt P00734). The assay can be described thus: In vitro for the inhibition of thrombin.
As for `CCON(C(=O)C1=CCC[C@H]1C(=O)NCc1ccc(C(=N)N)cc1)C1CCCCC1`, the IC50 stood at 0.87 µM.

Turning to `N=C(N)c1ccc(CNC(=O)[C@@H]2CCC[C@H]2C(=O)NC2CCCCC2)cc1`, half-maximal inhibition (IC50) was put at 1.32 µM.

Turning to `COC(=O)[C@H](NC(=O)[C@@H]1CCC[C@H]1C(=O)NCc1ccc(C(=N)N)cc1)c1ccccc1`, 20.4 µM corresponded to half-maximal inhibition (IC50).

In turn, `N=C(N)c1ccc(CNC(=O)[C@@H]2CCC=C2C(=O)NC2CCCCC2)cc1` showed an IC50 of 1.51 µM.

As to `N=C(N)c1ccc(CNC(=O)[C@@H]2CCC[C@H]2C(=O)NCc2ccccc2)cc1`, the IC50 was 44.7 µM.

With `N=C(N)c1ccc(CNC(=O)[C@@H]2CCC[C@H]2C(=O)N[C@@H](C(=O)O)c2ccccc2)cc1`, the IC50 is more than 132 µM.

The compound `CCN(C(=O)C1=CCC[C@H]1C(=O)NCc1ccc(C(=N)N)cc1)c1ccccc1` came in with a half-maximal inhibitory concentration (IC50) of 0.98 µM.

On to `N=C(N)c1ccc(CNC(=O)[C@H]2CCC[C@@H]2C(=O)NCc2ccccc2)cc1`, for which the IC50 was more than 132 µM.

On to `N=C(N)c1ccc(CNC(=O)[C@@H]2CCC=C2C(=O)NCC2CCCCC2)cc1`, for which the IC50 was 9.33 µM.

`N=C(N)c1ccc(CNC(=O)[C@@H]2CCC=C2C(=O)N2CCCCC2)cc1` returned an IC50 of 6.03 µM.

As usually defined, the IC50 is the concentration at which inhibition is half-maximal.
